Data reported in patent publication US11760758B2 (The Trustees of Columbia University in the City of New York, priority 2018, dated 2023).
Where two headings read alike, the source gives them in different places.

What was measured:
mouse MOR [1] = target: T1, mouse MOR (Mus musculus, UniProt P42866); assay: Radioligand competition binding ([125I]BNtxA), CHO membranes, MOR; details: for Ki: mean +/- SE, n = 3, CHO transfected with mouse opioid receptors
human MOR [2] = target: T2, human MOR (Homo sapiens, UniProt P35372); assay: BRET functional assay for G protein activation at hMOR; type: cell-based; details: for Agonist activity at hMOR (in words): compared to DAMGO
T2 construct: host or cells: HEK-293T

mouse KOR = target: T3, mouse KOR (Mus musculus, UniProt P33534); assay: Radioligand competition binding ([125I]BNtxA), CHO membranes, KOR; details: for Ki: mean +/- SE, n = 3, CHO transfected with mouse opioid receptors
T3 construct: expressed in transfected cells; membranes

mouse MOR [3] = target: T1, mouse MOR; assay: cAMP sensor CAMYEL functional assay at mMOR; type: cell-based; design: host or cells: HEK-293T; details: for Agonist activity at mMOR (in words): mMOR CAMYEL assay
mouse DOR = target: T4, mouse DOR (Mus musculus, UniProt P32300); assay: Radioligand competition binding ([125I]BNtxA), CHO membranes, DOR; details: for Ki: mean +/- SE, n = 3, CHO transfected with mouse opioid receptors
T4 construct: expressed in transfected cells; membranes

human MOR [4] = target: T2, human MOR; details: Kruegel, et al. 2016; cited from earlier work
[5] = Table 3, 7-OH series, hMOR G protein BRET, normalized to DAMGO Emax = 100%
[6] = EC50 (nM), Table 1, mitragynine series, hMOR G protein BRET, 95% confidence limits in brackets
[7] = Table 1, mitragynine series, hMOR G protein BRET, normalized to DAMGO Emax = 100%
[8] = Table 2, MG-EG series, hMOR G protein BRET, normalized to DAMGO Emax = 100%

CC[C@@H]1CN2CC[C@@]3(O)C(=Nc4cc(Br)cc(OC)c43)[C@@H]2C[C@@H]1/C(=C\OC)C(=O)OC [Compound 26, 11-bromo-7-OH]
Ki (mouse MOR [1]): 32.4 ± 1.42 nM
Emax (human MOR [2]; [5]): < 20%
Agonist activity at hMOR (in words) (human MOR [2]; hMOR G protein BRET): agonist activity was abolished
Ki (mouse KOR): 81.1 ± 7.11 nM
Emax (mouse MOR [3]): < 20%
Agonist activity at mMOR (in words) (mouse MOR [3]): not agonists
Ki (mouse DOR): 57.7 ± 6.66 nM

CC[C@@H]1CN2CC[C@@]3(O)C(=Nc4cc(F)cc(OC)c43)[C@@H]2C[C@@H]1/C(=C\OC)C(=O)OC [Compound 24, 11-Fluoro-7-hydroxymitragynine]
Ki (mouse MOR [1]): 13.7 ± 1.01 nM
Gain in affinity at mMOR relative to parent 7-OH, 23 (mouse MOR [1]; ratio of affinity vs 7-OH (23)): approximately 2 fold
EC50 (human MOR [2]; EC50 (nM), Table 3, 7-OH series, hMOR G protein BRET, 95% confidence limits in brackets): 3.98 nM
Emax (human MOR [2]; [5]): 47%
Ki (mouse KOR): 21 ± 3.26 nM
Affinity at KOR relative to parent compound 23 (mouse KOR; ratio of affinity vs 7-OH (23)): six times greater
Emax (mouse MOR [3]): 63.8%
EC50 (mouse MOR [3]; Table 5, 7-OH series, mMOR CAMYEL cAMP assay, 95% confidence limits in brackets, read-out: EC50): 15.1 nM
Ki (mouse DOR): 35.8 ± 2.01 nM
Affinity for DOR relative to 7-OH, 23 (mouse DOR; ratio of affinity vs 7-OH (23)): > 2 fold

CC[C@@H]1CN2CCc3c([nH]c4cc(F)cc(OC)c34)[C@@H]2C[C@@H]1/C(=C\OC)C(=O)OC [Compound 13, 11-fluoro-MG]
EC50 (human MOR [2]; [6]): 81.5 nM
Emax (human MOR [2]; [7]): 49%

CC[C@@H]1CN2CC[C@@]34OCCO[C@@]3(Nc3cc(O)cc(OC)c34)[C@@H]2C[C@@H]1/C(=C\OC)C(=O)OC [Compound 6, 11-hydroxy-MG-EG]
EC50 (human MOR [2]): 11.3 nM
Emax (human MOR [2]): 67.4%

CC[C@@H]1CN2CC[C@@]34OCCO[C@@]3(Nc3cccc(OC)c34)[C@@H]2C[C@@H]1/C(=C\OC)C(=O)OC [Compound 1, mitragynine-ethylene glycol adduct, reference compound]
EC50 (human MOR [2]; EC50 (nM), Table 2, MG-EG series, hMOR G protein BRET, 95% confidence limits in brackets): 14.8 nM
Emax (human MOR [2]; [8]): 56.2%
Agonist activity at hMOR (in words) (human MOR [2]; hMOR G protein BRET): partial agonist

CC[C@@H]1CN2CC[C@@]3(O)C(=Nc4cc(Cl)cc(OC)c43)[C@@H]2C[C@@H]1/C(=C\OC)C(=O)OC [Compound 25, 11-chloro-7-OH]
Ki (mouse MOR [1]): 27.1 ± 1.12 nM
Emax (human MOR [2]; [5]): < 20%
Agonist activity at hMOR (in words) (human MOR [2]; hMOR G protein BRET): agonist activity was abolished
Ki (mouse KOR): 30.6 ± 11.3 nM
Emax (mouse MOR [3]): < 20%
Agonist activity at mMOR (in words) (mouse MOR [3]): not agonists
Ki (mouse DOR): 47.2 ± 2.36 nM

CC[C@@H]1CN2CCc3c([nH]c4cc(Cl)cc(OC)c34)[C@@H]2CC1/C(=C\OC)C(=O)OC (stereo partly shown) [Compound 14, 11-Chloromitragynine]
EC50 (human MOR [2]; [6]): 327 nM
Emax (human MOR [2]; [7]): 33.4%

CC[C@@H]1CN2CCc3c([nH]c4cccc(OC)c34)[C@@H]2C[C@@H]1/C(=C\OC)C(=O)OC [Compound 12, mitragynine, reference compound]
Emax (human MOR [2]; [7]): 26.5%
Agonist activity at hMOR (in words), previously shown (human MOR [4]): partial agonist

CC[C@@H]1CN2CC[C@@]3(O)C(=Nc4cccc(OC)c43)[C@@H]2C[C@@H]1/C(=C\OC)C(=O)OC [Compound 23, 7-hydroxymitragynine, reference compound]
Ki (mouse MOR [1]): 21.4 ± 0.81 nM
Emax (human MOR [2]; [5]): 88%
Ki (mouse KOR): 119 ± 2.14 nM
EC50 (mouse MOR [3]): 13 nM
Emax (mouse MOR [3]): 92.4%
Ki (mouse DOR): 88.5 ± 9.86 nM

CC[C@@H]1CN2CC[C@@]34OCCO[C@@]3(Nc3cc(F)cc(OC)c34)[C@@H]2C[C@@H]1/C(=C\OC)C(=O)OC [Compound 2, 11-Fluoromitragynine-ethylene glycol adduct]
Emax (human MOR [2]; [8]): < 20%
Agonist activity at hMOR (in words) (human MOR [2]; hMOR G protein BRET): negligible agonist activity

CC[C@@H]1CN2CC[C@@]34OCCO[C@@]3(Nc3cc(Br)cc(OC)c34)[C@@H]2C[C@@H]1/C(=C\OC)C(=O)OC [Compound 4, 11-bromo-MG-EG]
Emax (human MOR [2]; [8]): < 20%
Agonist activity at hMOR (in words) (human MOR [2]; hMOR G protein BRET): negligible agonist activity

CC[C@@H]1CN2CC[C@@]34OCCO[C@@]3(Nc3cc(Cl)cc(OC)c34)[C@@H]2C[C@@H]1/C(=C\OC)C(=O)OC [Compound 3, C11-Chloromitragynine-ethylene glycol adduct]
Emax (human MOR [2]; [8]): < 20%
Agonist activity at hMOR (in words) (human MOR [2]; hMOR G protein BRET): negligible agonist activity

CC[C@@H]1CN2CCc3c([nH]c4cc(Br)cc(OC)c34)[C@@H]2C[C@@H]1/C(=C\OC)C(=O)OC [Compound 15, 11-bromo-MG]
Emax (human MOR [2]; [7]): < 20%
Agonist activity at hMOR (in words) (human MOR [2]; hMOR G protein BRET): no/negligible agonist activity
